Assay results taken from patent US11382956B2, “Amylin analogues” (Zealand Pharma A/S, priority 2016, dated 2022).
Numbered stars: 1 amine (or outer) side, 2 acyl side, 3 side chain; on linkers, the order of the positions; unused ones are H or OH. Bridge positions count the residues as written; N and C are the ends. Square brackets hold non-standard residues; d marks the D form. Peptide text beside a SMILES is read from it. * marks the point of attachment. C20 diacid = O=C(O)CCCCCCCCCCCCCCCCCCC(=O)*; γGlu = O=C(O)[C@H](CCC(=O)[*:2])N[*:1]; Hyp = O=C(O)[C@@H]1C[C@@H](O)CN1; NMeI = CC[C@H](C)[C@H](NC)C(=O)O; Aad = N[C@@H](CCCC(=O)O)C(=O)O; Orn = NCCC[C@H](N)C(=O)O; Sar = CNCC(=O)O

Columns and labels:
[1] = target: T1, recombinant human amylin 3 receptor (hAMYR3) (Homo sapiens, UniProt O60896+P30988); test: hAMYR3 cAMP assay (AlphaScreen) in 1321N1 cells; assay type: cell-based; settings: cAMP formation, 45 min stimulation
T1 construct: host or cells: human astrocytoma cell line 1321N1
T1 sequence (P30988 25-474): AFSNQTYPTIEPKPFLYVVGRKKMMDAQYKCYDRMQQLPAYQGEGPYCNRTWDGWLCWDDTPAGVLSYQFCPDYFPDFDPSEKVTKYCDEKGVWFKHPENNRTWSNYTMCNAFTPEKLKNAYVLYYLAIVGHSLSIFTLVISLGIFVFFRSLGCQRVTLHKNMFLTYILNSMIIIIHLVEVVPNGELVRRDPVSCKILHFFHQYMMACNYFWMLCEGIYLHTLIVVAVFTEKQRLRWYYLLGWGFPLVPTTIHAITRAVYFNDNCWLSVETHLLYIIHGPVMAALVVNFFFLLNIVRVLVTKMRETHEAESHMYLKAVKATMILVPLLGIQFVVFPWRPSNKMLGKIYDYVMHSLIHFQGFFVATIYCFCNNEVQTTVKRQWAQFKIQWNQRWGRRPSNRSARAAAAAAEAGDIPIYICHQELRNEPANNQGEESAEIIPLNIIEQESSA
T1 sequence (O60896 24-148 partner): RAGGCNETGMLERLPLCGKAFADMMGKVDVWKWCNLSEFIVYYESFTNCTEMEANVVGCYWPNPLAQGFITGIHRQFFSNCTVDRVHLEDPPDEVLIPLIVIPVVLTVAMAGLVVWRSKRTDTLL
How it was run: (§1)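 EC50 values come from curve fits over at least 7 peptide concentrations, with cAMP read by AlphaScreen competition after 1 h in the dark. Cells were 1321N1 lines carrying human calcitonin receptor, with RAMP3 co-expressed for AMY3, treated 45 min at room temperature in the presence of IBMX.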

[2] = target: T2, recombinant human calcitonin receptor (hCT-R) (Homo sapiens, UniProt P30988); test: hCT-R cAMP assay (AlphaScreen) in 1321N1 cells; assay type: cell-based; settings: cAMP formation, 45 min stimulation
T2 construct: host or cells: human astrocytoma cell line 1321N1
T2 sequence (P30988 25-474): T1 sequence (P30988 25-474)
How it was run: as §1

[3] = Assessment of chemical stability in 40 mM buffers at 40° C. (RP-HPLC); assay type: physicochemical; settings: 1 mg/mL; for % degradation after 14 days at 40° C. pH4 acetate: acetate buffer pH 4, 14 days; for % degradation after 14 days at 40° C. pH6 phosphate: phosphate buffer pH 6, 14 days
Experimental: Samples of each test peptide were dissolved in acetate buffer pH 4 and phosphate buffer pH 6 and 7 (all buffer 40 mM). The final peptide concentration was 1 mg/mL. Samples were placed in glass vials and incubated at 40° C. The samples were analyzed by RP-HPLC on a C8 column with gradient elution using a trifluoroacetic acid/acetonitrile/water eluent system. The area-percentage (area-%) of the main peak was determined by UV spectroscopy at 220 nm at each sampling time point.
The % degradation was calculated by subtracting the […].
The results of the chemical stability assessment after 3 days of incubation time are summarized as % degradation in Table 1 (below).
The results of the chemical stability assessment after 14 days of incubation time are summarized as % degradation in Table 2 (below).

[4] = Assessment of physical stability: fibril formation by Thioflavin T fluorescence; assay type: physicochemical; design: key: FND = fibrillation not detected; FD = fibrillation detected; settings: 1 mg/mL peptide
Experimental: Solutions containing (i) 1 mg/mL of test peptide, 40 μM ThT and 50 mM phosphate (Ph) buffer (pH 7.0), (ii) 1 mg/mL of test peptide, 40 μM ThT and 50 mM histidine (His) buffer (pH 7.0), and (iii) 1 mg/mL of test peptide, 40 μM ThT and 50 mM acetate (Ac) buffer (pH 4.0), were loaded in a 96-well black fluorescence plate (clear bottom) in triplicate. Data were collected at fixed intervals of 10 min, each preceded by 300 s of automixing (agitation), over a period of 96 hours at 40° C. Physical stability is determined by measuring the fluorescence intensity over time. A significant increase in intensity is rated as fibrillation detected (FD).

Compound	EC50 [1] [nM]	EC50 [2] [nM]	% degradation after 14 days at 40° C. pH4 acetate [3] [%]	% degradation after 14 days at 40° C. pH6 phosphate [3] [%]	% degradation after 14 days at 40° C. pH7 phosphate ([3]; phosphate buffer pH 7, 14 days) [%]	Fibrillation (in buffer) pH4 acetate ([4]; 50 mM acetate buffer pH 4.0, 96 hours at 40° C.)	Fibrillation (in buffer) pH7 histidine ([4]; 50 mM histidine buffer pH 7.0, 96 hours at 40° C.)	Fibrillation (in buffer) pH7 phosphate ([4]; 50 mM phosphate buffer pH 7.0, 96 hours at 40° C.)
CC[C@H](C)[C@@H](C(=O)N[C@@H](CC(C)C)C(=O)N[C@@H](CO)C(=O)N[C@@H](CO)C(=O)N[C@H](C(=O)N[C@@H](CCC(=O)O)C(=O)N[C@H](C(=O)NCC(=O)N[C@@H](CO)C(=O)N[C@@H](CC(N)=O)C(=O)N[C@H](C(=O)N1C[C@H](O)C[C@H]1C(N)=O)[C@@H](C)O)C(C)C)[C@@H](C)O)N(C)C(=O)[C@H](C)NC(=O)CN(C)C(=O)[C@H](Cc1ccccc1)NC(=O)[C@H](CO)NC(=O)[C@H](CO)NC(=O)[C@H](CCCNC(=N)N)NC(=O)[C@H](CCC(N)=O)NC(=O)[C@H](CC(C)C)NC(=O)[C@H](Cc1ccccc1)NC(=O)[C@H](Cc1c[nH]cn1)NC(=O)[C@H](C)NC(=O)[C@H](CC(C)C)NC(=O)[C@H](CCCNC(=N)N)NC(=O)[C@H](CCC(=O)O)NC(=O)[C@@H](NC(=O)[C@H](C)NC(=O)[C@@H]1CCCCNC(=O)C[C@H](NC(=O)[C@H](CCCNC(=N)N)NC(=O)CC[C@H](NC(=O)CCCCCCCCCCCCCCCCCCC(=O)O)C(=O)O)C(=O)NCC(=O)N[C@@H]([C@@H](C)O)C(=O)N[C@@H](C)C(=O)N[C@@H](CO)C(=O)N1)[C@@H](C)O [Compound 14, [19CD]-isoGlu-RD()GTASK()ATERLAHFLQRSSF-Gly(Me)-A-Ile(Me)-LSSTEVGSNT-Hyp-NH2] ({C20 diacid-γGlu}-RDGTASKATERLAHFLQRSSF[Sar]A[NMeI]LSSTEVGSNT[Hyp]-NH2; lactam 2-7)	0.108	0.386	2.2	<1	2.6			
CC[C@H](C)[C@@H](C(=O)N[C@@H](CC(C)C)C(=O)N[C@@H](CO)C(=O)N[C@@H](CO)C(=O)N[C@H](C(=O)N[C@@H](CCC(=O)O)C(=O)N[C@H](C(=O)NCC(=O)N[C@@H](CO)C(=O)N[C@@H](CC(N)=O)C(=O)N[C@H](C(=O)N1C[C@H](O)C[C@H]1C(N)=O)[C@@H](C)O)C(C)C)[C@@H](C)O)N(C)C(=O)[C@H](C)NC(=O)CN(C)C(=O)[C@H](Cc1ccccc1)NC(=O)[C@H](CO)NC(=O)[C@H](CO)NC(=O)[C@H](CCCNC(=N)N)NC(=O)[C@H](CCC(N)=O)NC(=O)[C@H](CC(C)C)NC(=O)[C@H](Cc1ccccc1)NC(=O)[C@H](CC(N)=O)NC(=O)[C@H](C)NC(=O)[C@H](CC(C)C)NC(=O)[C@H](CCCNC(=N)N)NC(=O)[C@H](CCC(N)=O)NC(=O)[C@@H](NC(=O)[C@H](C)NC(=O)[C@@H]1CCCCNC(=O)C[C@H](NC(=O)[C@H](CCCCN)NC(=O)CC[C@H](NC(=O)CCCCCCCCCCCCCCCCCCC(=O)O)C(=O)O)C(=O)NCC(=O)N[C@@H]([C@@H](C)O)C(=O)N[C@@H](C)C(=O)N[C@@H]([C@@H](C)O)C(=O)N1)[C@@H](C)O [Compound 43, [19CD]-isoGlu-KD()GTATK()ATQRLANFLQRSSF-Gly(Me)-A-Ile(Me)-LSSTEVGSNT-Hyp-NH2] ({C20 diacid-γGlu}-KDGTATKATQRLANFLQRSSF[Sar]A[NMeI]LSSTEVGSNT[Hyp]-NH2; lactam 2-7)	0.007	0.021				FD	FD	FD
CC[C@H](C)[C@@H](C(=O)N1CCC[C@H]1C(=O)N[C@@H](CO)C(=O)N[C@@H](CO)C(=O)N[C@H](C(=O)N[C@@H](CCC(=O)O)C(=O)N[C@H](C(=O)NCC(=O)N[C@@H](CO)C(=O)N[C@@H](CC(N)=O)C(=O)N[C@H](C(=O)N1C[C@H](O)C[C@H]1C(N)=O)[C@@H](C)O)C(C)C)[C@@H](C)O)N(C)C(=O)[C@H](C)NC(=O)CN(C)C(=O)[C@H](Cc1ccccc1)NC(=O)[C@H](CO)NC(=O)[C@H](CO)NC(=O)[C@H](CCCNC(=N)N)NC(=O)[C@H](CCC(N)=O)NC(=O)[C@H](CC(C)C)NC(=O)[C@H](Cc1ccccc1)NC(=O)[C@H](Cc1c[nH]cn1)NC(=O)[C@H](C)NC(=O)[C@H](CC(C)C)NC(=O)[C@H](CCCNC(=N)N)NC(=O)[C@H](CCC(=O)O)NC(=O)[C@@H](NC(=O)[C@H](C)NC(=O)[C@H](CCCN)NC(=O)[C@@H](NC(=O)[C@H](C)NC(=O)[C@@H](NC(=O)CNC(=O)[C@H](CC(=O)O)NC(=O)[C@H](CCCNC(=N)N)NC(=O)CC[C@H](NC(=O)CCCCCCCCCCCCCCCCCCC(=O)O)C(=O)O)[C@@H](C)O)[C@@H](C)O)[C@@H](C)O [Ref. 1, [19CD]-isoGlu-RDGTAT-Orn-ATERLAHFLQRSSF-Sar-A-Ile(Me)-PSSTEVGSNT-Hyp-NH2, reference compound] ({C20 diacid-γGlu}-RDGTAT[Orn]ATERLAHFLQRSSF[Sar]A[NMeI]PSSTEVGSNT[Hyp]-NH2)	17.1	20.3						
CC[C@H](C)[C@@H](C(=O)N[C@@H](CC(C)C)C(=O)N[C@@H](CO)C(=O)N[C@@H](CO)C(=O)N[C@H](C(=O)N[C@@H](CCC(=O)O)C(=O)N[C@H](C(=O)NCC(=O)N[C@@H](CO)C(=O)N[C@@H](CC(N)=O)C(=O)N[C@H](C(=O)N1C[C@H](O)C[C@H]1C(N)=O)[C@@H](C)O)C(C)C)[C@@H](C)O)N(C)C(=O)[C@H](C)NC(=O)CN(C)C(=O)[C@H](Cc1ccccc1)NC(=O)[C@H](CO)NC(=O)[C@H](CO)NC(=O)[C@H](CCCNC(=N)N)NC(=O)[C@H](CCC(N)=O)NC(=O)[C@H](CC(C)C)NC(=O)[C@H](Cc1ccccc1)NC(=O)[C@H](Cc1c[nH]cn1)NC(=O)[C@H](C)NC(=O)[C@H](CC(C)C)NC(=O)[C@H](CCCNC(=N)N)NC(=O)[C@H](CCC(=O)O)NC(=O)[C@@H](NC(=O)[C@H](C)NC(=O)[C@@H]1CSSC[C@H](NC(=O)[C@H](CCCNC(=N)N)NC(=O)CC[C@H](NC(=O)CCCCCCCCCCCCCCCCCCC(=O)O)C(=O)O)C(=O)NCC(=O)N[C@@H]([C@@H](C)O)C(=O)N[C@@H](C)C(=O)N[C@@H]([C@@H](C)O)C(=O)N1)[C@@H](C)O [Ref. 2, [19CD]-isoGlu-RC()GTATC()ATERLAHFLQRSSF-Sar-A-Ile(Me)-LSSTEVGSNT-Hyp-NH2, reference compound] ({C20 diacid-γGlu}-RCGTATCATERLAHFLQRSSF[Sar]A[NMeI]LSSTEVGSNT[Hyp]-NH2; disulfide 2-7)	0.003	0.019	<1	4.6				
CC[C@H](C)[C@@H](C(=O)N[C@@H](CC(C)C)C(=O)N[C@@H](CO)C(=O)N[C@@H](CO)C(=O)N[C@H](C(=O)N[C@@H](CCC(=O)O)C(=O)N[C@H](C(=O)NCC(=O)N[C@@H](CO)C(=O)N[C@@H](CC(N)=O)C(=O)N[C@H](C(=O)N1C[C@H](O)C[C@H]1C(N)=O)[C@@H](C)O)C(C)C)[C@@H](C)O)N(C)C(=O)[C@H](C)NC(=O)CN(C)C(=O)[C@H](Cc1ccccc1)NC(=O)[C@H](CO)NC(=O)[C@H](CO)NC(=O)[C@H](CCCNC(=N)N)NC(=O)[C@H](CCC(N)=O)NC(=O)[C@H](CC(C)C)NC(=O)[C@H](Cc1ccccc1)NC(=O)[C@H](CCCC(=O)O)NC(=O)[C@H](C)NC(=O)[C@H](CC(C)C)NC(=O)[C@H](CCCNC(=N)N)NC(=O)[C@H](CCC(=O)O)NC(=O)[C@@H](NC(=O)[C@H](C)NC(=O)[C@H](CCCN)NC(=O)[C@@H](NC(=O)[C@H](C)NC(=O)[C@@H](NC(=O)CNC(=O)[C@H](CC(=O)O)NC(=O)[C@H](CCCNC(=N)N)NC(=O)CC[C@H](NC(=O)CCCCCCCCCCCCCCCCCCC(=O)O)C(=O)O)[C@@H](C)O)[C@@H](C)O)[C@@H](C)O [Ref. 3, [19CD]-isoGlu-RDGTAT-Orn-ATERLA-Aad-FLQRSSF-Sar-A-Ile(Me)-LSSTEVGSNT-Hyp-NH2, reference compound] ({C20 diacid-γGlu}-RDGTAT[Orn]ATERLA[Aad]FLQRSSF[Sar]A[NMeI]LSSTEVGSNT[Hyp]-NH2)	13.2	18.2						
